Results published in patent US9802941B2, “Compounds and methods for inhibiting histone demethylases” (Gilead Sciences, Inc., priority 2014, dated 2017).
Read-outs that look alike come from different tables or passages of the source.

Key:
Format in all cases: biochemical
KDM4C (JMJD2C) = molecular target: T1, KDM4C (JMJD2C) (Homo sapiens, UniProt Q9H3R0); assay: Histone lysine demethylase AlphaLISA assay, KDM4C
T1 construct: KDM4C; BRIC, Denmark; 1-349; E. coli; host or cells: E. coli
T1 sequence (Q9H3R0 1-349): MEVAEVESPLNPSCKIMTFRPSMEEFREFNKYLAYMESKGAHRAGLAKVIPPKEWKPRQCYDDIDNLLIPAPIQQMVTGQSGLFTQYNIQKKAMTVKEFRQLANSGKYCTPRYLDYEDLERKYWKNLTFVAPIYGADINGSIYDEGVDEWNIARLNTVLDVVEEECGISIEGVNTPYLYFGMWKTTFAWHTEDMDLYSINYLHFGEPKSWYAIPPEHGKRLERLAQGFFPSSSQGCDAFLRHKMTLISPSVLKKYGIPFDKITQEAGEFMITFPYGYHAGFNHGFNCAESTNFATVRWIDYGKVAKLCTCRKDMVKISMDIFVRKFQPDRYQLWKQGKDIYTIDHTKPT
Method: (§1) The compounds of the application, or a pharmaceutically acceptable salt, or solvate, or prodrug thereof, are tested in an in vitro AlphaLISA assay. Enzymes are dissolved in enzyme buffer and incubated before they are added to DMSO solutions of compounds of the application, or a pharmaceutically acceptable salt, or solvate, or prodrug thereof, in enzyme buffer. The reaction mixture is then incubated for an additional period of time before substrate solution is added and then the resulting mixture again incubated. Acceptor beads and suspended Epigenetic Buffer from stock are added and the suspension is again incubated before a suspension of streptavidin donor beads in Epigenetic Buffer is added. After an additional period of incubation, the plates are read.
(§2) The ability of compounds of the application to inhibit the histone lysine demethylase activity in vitro of different enzymes was determined.
(§3) The reaction mixture was incubated for another 10 minutes before 5 μL of substrate solution was added and the resulting mixture was then incubated at room temperature. […] After incubation at room temperature in the dark, the plates were read.
(§4) Enzyme Buffer: 50 mM Hepes (pH 7.4-8.0), 0.003-0.01% Tween-20, 0.1% BSA; 5 μM (NH4)2Fe(SO4)2.

KDM2B (FBXL10) = molecular target: T2, KDM2B (FBXL10) (Homo sapiens, UniProt Q8NHM5); assay: Histone lysine demethylase AlphaLISA assay, KDM2B
T2 construct: KDM2B; BPS,; 1-650; Bac; purchased BPS Bioscience, US; host or cells: baculovirus system
T2 sequence (Q8NHM5 1-650): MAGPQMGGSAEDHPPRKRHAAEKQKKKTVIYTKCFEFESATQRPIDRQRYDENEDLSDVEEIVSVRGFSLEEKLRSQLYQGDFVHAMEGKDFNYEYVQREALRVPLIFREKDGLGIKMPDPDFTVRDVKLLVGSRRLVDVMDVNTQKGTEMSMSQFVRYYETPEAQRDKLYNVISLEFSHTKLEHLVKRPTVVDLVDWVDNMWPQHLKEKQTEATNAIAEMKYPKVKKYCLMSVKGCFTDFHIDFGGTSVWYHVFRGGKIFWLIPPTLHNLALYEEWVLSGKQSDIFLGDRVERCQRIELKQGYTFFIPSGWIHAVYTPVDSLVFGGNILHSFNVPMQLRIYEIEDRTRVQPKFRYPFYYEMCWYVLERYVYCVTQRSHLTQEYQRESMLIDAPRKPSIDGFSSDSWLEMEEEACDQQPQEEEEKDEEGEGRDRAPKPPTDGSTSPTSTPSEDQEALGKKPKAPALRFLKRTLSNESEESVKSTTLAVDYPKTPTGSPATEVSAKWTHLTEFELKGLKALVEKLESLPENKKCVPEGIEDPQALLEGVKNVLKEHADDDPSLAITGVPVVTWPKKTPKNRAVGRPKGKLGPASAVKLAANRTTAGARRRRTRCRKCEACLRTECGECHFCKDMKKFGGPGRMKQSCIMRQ
Method: as §1, §2, §3, §4

PHF8 (KDM7) = molecular target: T3, PHF8 (KDM7) (Homo sapiens, UniProt Q9UPP1); assay: Histone lysine demethylase AlphaLISA assay, PHF8
T3 construct: KDM7 (PHF8); BRIC; 1-1322; Bac
Method: as §1, §2, §3, §4

KDM5B (PLU-1) = molecular target: T4, KDM5B (PLU-1) (Homo sapiens, UniProt Q9UGL1); assay: Histone lysine demethylase AlphaLISA assay, KDM5B
T4 construct: BRIC; 1-809; E. coli; host or cells: E. coli
T4 sequence (Q9UGL1 1-809): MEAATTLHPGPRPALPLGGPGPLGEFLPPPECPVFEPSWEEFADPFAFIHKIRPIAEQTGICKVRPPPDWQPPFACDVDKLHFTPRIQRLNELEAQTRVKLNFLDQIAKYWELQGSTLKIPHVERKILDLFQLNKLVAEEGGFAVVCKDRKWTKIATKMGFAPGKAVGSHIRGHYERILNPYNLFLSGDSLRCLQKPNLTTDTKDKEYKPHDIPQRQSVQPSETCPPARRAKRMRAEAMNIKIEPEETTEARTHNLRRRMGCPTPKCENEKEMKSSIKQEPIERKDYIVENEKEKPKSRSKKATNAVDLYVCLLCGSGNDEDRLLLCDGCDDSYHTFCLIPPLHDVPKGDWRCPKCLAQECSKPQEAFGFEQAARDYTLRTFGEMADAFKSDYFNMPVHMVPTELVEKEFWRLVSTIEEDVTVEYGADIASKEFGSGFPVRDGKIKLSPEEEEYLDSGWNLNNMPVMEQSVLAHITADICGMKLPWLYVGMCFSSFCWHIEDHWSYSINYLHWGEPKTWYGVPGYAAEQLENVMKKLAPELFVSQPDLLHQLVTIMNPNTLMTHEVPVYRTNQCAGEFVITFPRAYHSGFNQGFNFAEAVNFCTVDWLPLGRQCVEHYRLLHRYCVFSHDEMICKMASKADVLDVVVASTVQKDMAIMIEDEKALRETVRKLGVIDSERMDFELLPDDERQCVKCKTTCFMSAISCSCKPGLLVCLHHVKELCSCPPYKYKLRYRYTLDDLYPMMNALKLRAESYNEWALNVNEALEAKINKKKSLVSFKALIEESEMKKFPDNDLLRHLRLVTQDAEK
Method: as §1, §2, §3, §4

[1] = AlphaLISA assay, read-out: HDME Inhibition KDM4C (IC50)
[2] = AlphaLISA, in vitro, read-out: HDME Inhibition KDM4C
[3] = AlphaLISA, in vitro, read-out: HDME Inhibition KDM2B
[4] = AlphaLISA assay, read-out: HDME Inhibition PHF8 (IC50)
[5] = AlphaLISA, in vitro, read-out: HDME Inhibition PHF8
[6] = AlphaLISA assay, read-out: HDME Inhibition KDM5B (IC50)
[7] = AlphaLISA, in vitro, read-out: HDME Inhibition KDM5B
[8] = AlphaLISA assay, read-out: HDME Inhibition KDM2B (IC50)

T3 sequence (Q9UPP1 37-440 limits assumed): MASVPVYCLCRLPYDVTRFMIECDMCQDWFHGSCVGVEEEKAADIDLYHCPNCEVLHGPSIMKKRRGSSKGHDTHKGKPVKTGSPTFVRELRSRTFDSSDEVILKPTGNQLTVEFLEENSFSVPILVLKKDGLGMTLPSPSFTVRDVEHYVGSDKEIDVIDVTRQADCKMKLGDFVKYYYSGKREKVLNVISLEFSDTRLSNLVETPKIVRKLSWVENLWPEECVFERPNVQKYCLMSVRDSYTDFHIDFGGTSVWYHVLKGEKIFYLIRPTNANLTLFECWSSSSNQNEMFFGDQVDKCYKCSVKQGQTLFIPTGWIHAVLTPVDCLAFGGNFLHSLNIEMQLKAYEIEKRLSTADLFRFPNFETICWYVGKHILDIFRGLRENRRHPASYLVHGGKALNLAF

| SMILES | IC50 (KDM4C (JMJD2C); [1]) | IC50 (KDM4C (JMJD2C); [2]) | IC50 (KDM2B (FBXL10); [3]) | IC50 (PHF8 (KDM7); [4]) | IC50 (PHF8 (KDM7); [5]) | IC50 (KDM5B (PLU-1); [6]) | IC50 (KDM5B (PLU-1); [7]) | IC50 (KDM2B (FBXL10); [8]) | IC50 (KDM5B (PLU-1)) |
| --- | --- | --- | --- | --- | --- | --- | --- | --- | --- |
| Cc1cc(C(=O)O)cc(CNCc2nnc3n2C(c2ccccc2)CNC3)n1 (stereo not shown) [Compound 113, 2-methyl-6-{[({5-phenyl-5H,6H,7H,8H-[1,2,4]triazolo[4,3-a]pyrazin-3-yl}methyl)amino]methyl}pyridine-4-carboxylic acid] | > 10 µM | > 10 µM | 2.83 µM | > 10 µM | > 10 µM | > 10 µM | > 10 µM |  |  |
| CC(C)C[C@@H](CO)NCc1cc(C(=O)O)cc(CO)n1 [Compound 79, 2-({[(2S)-1-hydroxy-4-methylpentan-2-yl]amino}methyl)-6-(hydroxymethyl)pyridine-4-carboxylic acid] | > 10 µM | > 10 µM | > 10 µM | > 10 µM | > 10 µM | > 10 µM | > 10 µM | > 10 µM |  |
| O=C(O)c1cc(CO)nc(CNCc2nccn2Cc2ccc(F)cc2)c1 [Compound 81, 2-{[({1-[(4-fluorophenyl)methyl]-1H-imidazol-2-yl}methyl)amino]methyl}-6-(hydroxymethyl)pyridine-4-carboxylic acid] |  | 0.823 µM | 0.14 µM |  | 0.334 µM |  |  |  | 0.021 µM |
| C=CCn1ccnc1CNCc1cc(C(=O)O)cc(C)n1 [Compound 75, 2-methyl-6-[({[1-(prop-2-en-1-yl)-1H-imidazol-2-yl]methyl}amino)methyl]pyridine-4-carboxylic acid] | > 10 µM | > 10 µM | 0.587 µM |  | 1.27 µM |  |  |  | 0.431 µM |
| COc1ccc(OCc2ccccc2)c(CNCc2cc(C(=O)O)cc(C)n2)n1 [Compound 92, 2-[({[3-(benzyloxy)-6-methoxypyridin-2-yl]methyl}amino)methyl]-6-methylpyridine-4-carboxylic acid] | > 10 µM | > 10 µM | 0.053 µM |  | 1.23 µM | > 10 µM | > 10 µM |  |  |
| COc1ccc(OCc2ccccc2)c(CNCc2cc(C(=O)O)cc(CO)n2)n1 [Compound 93, 2-[({[3-(Benzyloxy)-6-methoxypyridin-2-yl]methyl}amino)methyl]-6-(hydroxymethyl)pyridine-4-carboxylic acid] | > 10 µM | > 10 µM | 0.032 µM |  | 1.48 µM | > 10 µM | > 10 µM |  |  |
| CCc1nnc(CNCc2cc(C(=O)O)cc(CO)n2)n1CCCc1ccccc1 [Compound 69, 2-[({[5-ethyl-4-(3-phenylpropyl)-4H-1,2,4-triazol-3-yl]methyl}amino)methyl]-6-(hydroxymethyl)pyridine-4-carboxylic acid] | > 10 µM | > 10 µM | 0.027 µM |  | 0.662 µM | > 10 µM | > 10 µM |  |  |
| Cc1cc(C(=O)O)cc(CNCc2ncc(CN(C)C)n2Cc2ccc(F)cc2)n1 [Compound 50, 2-{[({5-[(dimethylamino)methyl]-1-[(4-fluorophenyl)methyl]-1H-imidazol-2-yl}methyl)amino]methyl}-6-methylpyridine-4-carboxylic acid] | > 10 µM | > 10 µM | 0.692 µM |  | 1.04 µM | > 10 µM | > 10 µM |  |  |
| Cc1cc(C(=O)O)cc(CNCc2nnc(CCN(C)C)n2Cc2ccc(F)cc2)n1 [Compound 46, 2-{[({5-[2-(dimethylamino)ethyl]-4-[(4-fluorophenyl)methyl]-4H-1,2,4-triazol-3-yl}methyl)amino]methyl}-6-methylpyridine-4-carboxylic acid] | > 10 µM | > 10 µM | 2.27 µM |  | 2.28 µM | > 10 µM | > 10 µM |  |  |
| O=C(O)c1cc(CO)nc(CNCc2nnc(-c3ccccc3)n2CCCc2ccccc2)c1 [Compound 99, 2-(hydroxymethyl)-6-[({[5-phenyl-4-(3-phenylpropyl)-4H-1,2,4-triazol-3-yl]methyl}amino)methyl]pyridine-4-carboxylic acid] | > 10 µM | > 10 µM | > 10 µM | > 10 µM | > 10 µM |  |  | > 10 µM | 8.41 µM |
| O=C(O)c1cc(CO)nc(CNCc2nncn2CCc2cc(Cl)cc(Cl)c2)c1 [Compound 55, 2-{[({4-[2-(3,5-dichlorophenyl)ethyl]-4H-1,2,4-triazol-3-yl}methyl)amino]methyl}-6-(hydroxymethyl)pyridine-4-carboxylic acid] | > 10 µM | > 10 µM | 0.656 µM |  | 1.3 µM |  |  |  | 1.78 µM |
| Cc1cc(C(=O)O)cc(CNCc2nnc(C)n2Cc2ccc(Cl)c(Cl)c2)n1 [Compound 57, 2-{[({4-[(3,4-dichlorophenyl)methyl]-5-methyl-4H-1,2,4-triazol-3-yl}methyl)amino]methyl}-6-methylpyridine-4-carboxylic acid] | > 10 µM | > 10 µM | 1.14 µM |  | 1.27 µM | > 10 µM | > 10 µM |  |  |
| CCc1cnc(CNCc2cc(C(=O)O)cc(CO)n2)n1Cc1ccc(F)cc1 [Compound 100, 2-{[({5-ethyl-1-[(4-fluorophenyl)methyl]-1H-imidazol-2-yl}methyl)amino]methyl}-6-(hydroxymethyl)pyridine-4-carboxylic acid] | > 10 µM | > 10 µM | 0.07 µM |  | 1.15 µM |  |  |  | 0.635 µM |
| COc1ccc(O)c(CCNCc2cc(C(=O)O)cc(CO)n2)n1 [Compound 109, 2-({[2-(3-hydroxy-6-methoxypyridin-2-yl)ethyl]amino}methyl)-6-(hydroxymethyl)pyridine-4-carboxylic acid] | > 10 µM | > 10 µM | > 10 µM | > 10 µM | > 10 µM | > 10 µM | > 10 µM | > 10 µM |  |
